This series in a line: Human HepG2 cell viability assay in 384 well format. Set-up: dose 125 nL, time 70.5 hour; concentration not given beside the values. Type of series: toxicity, cell-based. As to conditions: HepG2 cells, read-out: Inhibition.

For `CC(C)COC(=O)N1CC(=O)N(Cc2ccc(Cl)cc2)CC(O)C1` (stereo not drawn), the cytotoxicity at 70.5 h is -3.08%.

As for `COc1ccccc1CN1CC(O)CN(S(=O)(=O)C(C)C)CC1=O` (stereo not drawn), the cytotoxicity at 70.5 h was 16.7%. Regarding `CCOC(=O)N1CC(=O)N(CCc2ccccc2)CC(O)C1` (stereo not drawn), the cytotoxicity at 70.5 h amounted to 5.59%. `COC1CN(C(=O)C2CC2)CCC(=O)N(C)c2ccccc21` (stereo not drawn): the cytotoxicity at 70.5 h turned out to be 2.56%. Turning to `COC1CN(C(=O)CC(C)C)CCC(=O)N(C)c2ccccc21` (stereo not drawn), the cytotoxicity at 70.5 h is -7.01%. For `COC1CN(C(=O)COC(C)=O)CCC(=O)N(C)c2ccccc21` (stereo not drawn), the cytotoxicity at 70.5 h is -5.15%.

In the case of `COC1CN(C(=O)CC2CCCC2)CCC(=O)N(C)c2ccccc21` (stereo not drawn), the cytotoxicity at 70.5 h is 21.5%. The same measure for `COC1CN(C(=O)NCC(N)=O)CCC(=O)N(C)c2ccccc21` (stereo not drawn): -7.69%; for `COCC(=O)N1CCC(=O)N(C2CCCC2)Cc2cc(F)ccc21`: -5.37%. For `O=C(O)CCCC(=O)N1CCC(c2noc3cc(F)ccc23)CC1` the value was -13.8%; for `O=C(NC1CCC1)[C@H]1C[C@@H]2CN(S(=O)(=O)c3ccccc3)C[C@H]1O2`, -1.64%.

As for `CC(C)OC[C@H]1CCC[C@]12CN(S(=O)(=O)C1CC1)CCO2`, the cytotoxicity at 70.5 h was -0.771%. The same measure for `COCCN1CCc2ncc(CN(C)C)n2CC1`: -0.491%.

`Cc1cnc(N2C[C@@H]3[C@@H](C2)OCC(=O)N3C)nc1`: the cytotoxicity at 70.5 h is -8.76%. For `COCCN1CCc2ncc(CNc3cc(N(C)C)ncn3)n2CC1` the value was -8.47%. For `Cc1nc(CN2CCc3nc(NC(C)C)nc(C)c3C2)cs1` the value was -6.71%; for `CN(C)CCN1C(=O)CO[C@@H]2CN(c3ncc(F)cn3)C[C@H]21`, -6.29%. Take `COCC(=O)N1CCC2(CC1)CC(N1CCN(C)CC1)CO2` (stereo not drawn): the cytotoxicity at 70.5 h was determined as 14.5%. The same measure for `Cc1ccc2c(c1)C1(CCNCC1)CC2N1CCOCC1` (stereo not drawn): 1.67%. Regarding `CCN(C)C(=O)c1ccc2c(c1)C(c1nc[nH]n1)CN2S(C)(=O)=O` (stereo not drawn), the cytotoxicity at 70.5 h is -8.39%. The same measure for `CCc1cnc(NC2CCc3c(ccc(=O)n3C)C2)nc1` (stereo not drawn): -5.8%; for `CC(C)CS(=O)(=O)N1CCC2(CC1)CCn1c(-c3cnn(C)c3)cnc12`: 32.9%; for `CO[C@H]1CN(S(=O)(=O)c2cn(C)cn2)[C@@H]2CCCO[C@H]12`: 24.5%. On to `CC(=O)N1CCC2(CC1)CN(C(=O)c1cccc3[nH]ccc13)CCO2`, for which the cytotoxicity at 70.5 h was found to be 27.3%. For the molecule `Cc1cnc(NC2CCc3c(ccc(=O)n3CC3CC3)C2)nc1` (stereo not drawn), the cytotoxicity at 70.5 h was -5.47%.

For the molecule `c1cnc(N2CCCn3nnc(COCC4CC4)c3C2)nc1`, the cytotoxicity at 70.5 h was -1.29%. The same measure for `Cn1ccc(CN2CCC3(CC2)CC(Nc2cnccn2)CO3)n1` (stereo not drawn): -1.03%.

In the case of `COCCN1CCC2(CC1)CC(Nc1ccc(C)nn1)CO2` (stereo not drawn), the cytotoxicity at 70.5 h was -2.32%. For `CCCS(=O)(=O)N1CCC2(CC1)CC(N1CCCC1)c1ccccc12` (stereo not drawn) the value was -8.52%; for `CN(C)CCN1C(=O)CC[C@@H]2[C@H]1CCN2C(=O)c1ccc(C#N)cc1`, -7.83%; for `Cc1nnc([C@]23COC[C@H]2CN(Cc2nccs2)C3)o1`, -10.3%. The same measure for `CS(=O)(=O)N[C@@H]1CCO[C@]2(CCN(CC3CCOCC3)C2)C1`: -5.05%. For the molecule `CS(=O)(=O)N[C@H]1CCO[C@]2(CCN(CC3CCOCC3)C2)C1`, the cytotoxicity at 70.5 h is -11.1%.

Consider `CN(C)Cc1noc2c1CN(Cc1ccsc1)CC2`, for which the cytotoxicity at 70.5 h is -5.59%.

On to `Cc1ccc(C(=O)N2CC[C@@H]3[C@H]2CCC(=O)N3CCN(C)C)cn1`, for which the cytotoxicity at 70.5 h was determined as 18.5%. In the case of `CC(=O)N(C)Cc1nn(C)c2c1CN(Cc1ccsc1)C2`, the cytotoxicity at 70.5 h is -6.65%. The same measure for `c1ccc(CN2CCc3ncnc(C4CC4)c3CC2)nc1`: -1.29%; for `CCO[C@@H]1C[C@H]2CN(Cc3ccc(C)o3)CCN2C1`: -11.9%.

(Values after ChEMBL document CHEMBL3507680, “University of Dundee, Gates Library screen for HepG2 cell viability”.)
